From publication PMC5072725, “A Novel Diphenylthiosemicarbazide Is a Potential Insulin Secretagogue for Anti-Diabetic Agent” (PLoS ONE, 2016)

Molecular target: T1, β-cell KATP channel (human SUR1 and human Kir6.2) (Homo sapiens, UniProt Q09428)
T1 construct: gene ABCC8; SUR1 and Kir6.2 co-expressed in COS-1 cells; with ATP-sensitive inward rectifier potassium channel 11
Assay: whole-cell patch clamp, inhibition of diazoxide-induced K+ current
Format: cell-based

T1 sequence (Q09428 whole entry): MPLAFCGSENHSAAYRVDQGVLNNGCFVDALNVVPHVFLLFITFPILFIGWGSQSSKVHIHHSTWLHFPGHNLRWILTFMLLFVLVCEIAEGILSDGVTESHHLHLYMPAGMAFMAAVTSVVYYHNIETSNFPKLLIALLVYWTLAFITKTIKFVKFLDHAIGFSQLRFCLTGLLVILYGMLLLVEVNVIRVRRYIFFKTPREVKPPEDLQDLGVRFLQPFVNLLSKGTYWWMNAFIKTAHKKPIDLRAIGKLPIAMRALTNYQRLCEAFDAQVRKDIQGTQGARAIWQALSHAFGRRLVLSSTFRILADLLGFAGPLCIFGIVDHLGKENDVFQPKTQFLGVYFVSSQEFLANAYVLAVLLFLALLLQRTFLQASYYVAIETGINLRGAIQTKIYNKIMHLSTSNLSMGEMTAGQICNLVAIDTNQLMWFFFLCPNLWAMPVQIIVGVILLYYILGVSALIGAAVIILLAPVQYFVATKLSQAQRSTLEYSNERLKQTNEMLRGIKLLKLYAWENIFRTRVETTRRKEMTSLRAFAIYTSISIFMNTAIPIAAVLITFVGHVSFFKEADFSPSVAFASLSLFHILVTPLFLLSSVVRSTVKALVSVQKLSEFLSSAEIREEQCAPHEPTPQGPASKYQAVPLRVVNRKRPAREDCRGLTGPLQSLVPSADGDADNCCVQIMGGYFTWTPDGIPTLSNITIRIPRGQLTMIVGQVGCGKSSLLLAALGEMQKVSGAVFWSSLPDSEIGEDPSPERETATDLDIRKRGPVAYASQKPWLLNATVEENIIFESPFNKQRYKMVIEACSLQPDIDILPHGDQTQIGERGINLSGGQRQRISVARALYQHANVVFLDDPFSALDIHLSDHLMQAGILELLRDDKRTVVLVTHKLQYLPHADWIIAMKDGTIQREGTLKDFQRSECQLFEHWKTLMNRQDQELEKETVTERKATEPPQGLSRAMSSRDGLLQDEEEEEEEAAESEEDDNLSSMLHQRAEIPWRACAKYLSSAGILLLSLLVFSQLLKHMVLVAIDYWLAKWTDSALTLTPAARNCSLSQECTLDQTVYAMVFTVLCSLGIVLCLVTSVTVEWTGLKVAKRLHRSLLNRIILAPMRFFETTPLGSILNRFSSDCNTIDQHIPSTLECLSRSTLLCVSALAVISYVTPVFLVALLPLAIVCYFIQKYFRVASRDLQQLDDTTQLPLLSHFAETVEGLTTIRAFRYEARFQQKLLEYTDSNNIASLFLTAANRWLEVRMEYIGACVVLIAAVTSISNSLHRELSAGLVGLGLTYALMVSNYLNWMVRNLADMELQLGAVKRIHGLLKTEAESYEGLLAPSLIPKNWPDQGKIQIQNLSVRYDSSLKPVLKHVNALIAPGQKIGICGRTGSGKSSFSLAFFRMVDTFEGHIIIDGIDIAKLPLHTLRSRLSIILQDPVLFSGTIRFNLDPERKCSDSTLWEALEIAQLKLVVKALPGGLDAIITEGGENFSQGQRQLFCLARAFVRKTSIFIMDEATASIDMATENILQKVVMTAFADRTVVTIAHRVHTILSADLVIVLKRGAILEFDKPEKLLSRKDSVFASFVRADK
T1 sequence (Q14654 whole entry partner): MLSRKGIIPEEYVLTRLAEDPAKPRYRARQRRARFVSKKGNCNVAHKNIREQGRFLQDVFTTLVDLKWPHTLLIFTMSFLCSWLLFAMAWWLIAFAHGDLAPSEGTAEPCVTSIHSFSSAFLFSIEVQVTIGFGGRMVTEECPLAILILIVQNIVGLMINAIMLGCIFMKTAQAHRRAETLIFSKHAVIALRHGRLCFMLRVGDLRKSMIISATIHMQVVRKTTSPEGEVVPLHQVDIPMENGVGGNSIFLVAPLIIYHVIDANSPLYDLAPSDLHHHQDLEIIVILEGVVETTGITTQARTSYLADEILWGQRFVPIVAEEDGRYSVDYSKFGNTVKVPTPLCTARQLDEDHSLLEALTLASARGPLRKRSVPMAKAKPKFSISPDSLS

- IC50: 0.86 µM
SMILES: Cc1ccc(S(=O)(=O)NC(=O)NN2CC3CCCC3C2)cc1 (stereo not shown) [gliclazide]
